Experimental data reported in ChEMBL document CHEMBL2150933 (J Med Chem, 2012).
The source made the active and inactive calls. No cut-off for these calls is given here.

Assays:
MDA-MB-468 = experiment: Cytotoxicity against human MDA-MB-468 cells after 48 hrs by SRB assay; type: functional; conditions: MDA-MB-468, 48 h
[1] = Toxicity in iv dosed CD1 mouse administered as single dose; type: organism-based; conditions: in vivo
Mus musculus [2] = experiment: Toxicity in iv dosed CD1 mouse administered Q2D for 8 days; type: organism-based; conditions: mouse, in vivo, 192 h
Mus musculus [3] = experiment: Toxicity in iv dosed CD1 mouse administered Q3D for 8 days; type: organism-based; conditions: in vivo, 192 h
[4] = Plasma concentration in CD1 mouse at 18 mg/kg, iv administered as single dose measured after 30 mins; type: ADME, organism-based; parameters: dose 18 mg/kg, route intravenous
[5] = Plasma concentration in CD1 mouse at 18 mg/kg, iv administered as single dose measured after 120 mins; type: ADME, organism-based; parameters: dose 18 mg/kg, route intravenous
COLO 205 [6] = experiment: Antitumor activity against human COLO205 cells xenografted in athymic nu/nu Harlan mouse assessed as tumor growth inhibition at 20 mg/kg, iv administered Q3D for 10 days relative to control; type: functional, organism-based; parameters: dose 20 mg/kg
SK-MEL-2 [7] = experiment: Antitumor activity against human SK-MEL-2 cells xenografted in athymic nu/nu Harlan mouse assessed as tumor growth inhibition at 20 mg/kg, iv administered Q3D for 10 days relative to control; type: functional, organism-based; parameters: dose 20 mg/kg
Mus musculus [8] = experiment: Toxicity in athymic nu/nu Harlan mouse xenografted with human COLO205 cells assessed as adverse reactions at 10 mg/kg, iv administered Q2D for 10 days relative to control; type: organism-based, COLO 205; parameters: dose 10 mg/kg, route intravenous; conditions: in vivo, 240 h
Mus musculus [9] = experiment: Toxicity in athymic nu/nu Harlan mouse xenografted with human COLO205 cells assessed as adverse reactions at 20 mg/kg, iv administered Q3D for 10 days relative to control; type: organism-based, COLO 205; parameters: dose 20 mg/kg, route intravenous; conditions: in vivo, 240 h
Mus musculus [10] = experiment: Toxicity in athymic nu/nu Harlan mouse xenografted with human COLO205 cells assessed as change in body weight at 10 mg/kg, iv administered Q2D for 10 days relative to control; type: organism-based, COLO 205; parameters: dose 10 mg/kg, route intravenous; conditions: in vivo, 240 h
Mus musculus [11] = experiment: Toxicity in athymic nu/nu Harlan mouse xenografted with human SK-MEL-2 cells assessed as adverse reactions at 10 mg/kg, iv administered Q2D for 10 days relative to control; type: organism-based; parameters: dose 10 mg/kg, route intravenous; conditions: in vivo, 240 h
Mus musculus [12] = experiment: Toxicity in athymic nu/nu Harlan mouse xenografted with human SK-MEL-2 cells assessed as adverse reactions at 20 mg/kg, iv administered Q3D for 10 days relative to control; type: organism-based; parameters: dose 20 mg/kg, route intravenous; conditions: in vivo, 240 h
Mus musculus [13] = experiment: Toxicity in athymic nu/nu Harlan mouse xenografted with human SK-MEL-2 cells assessed as mortality at 10 mg/kg, iv administered Q2D for 10 days relative to control; type: organism-based; parameters: dose 10 mg/kg, route intravenous; conditions: in vivo, 240 h
Mus musculus [14] = experiment: Toxicity in athymic nu/nu Harlan mouse xenografted with human SK-MEL-2 cells assessed as change in body weight at 10 mg/kg, iv administered Q2D for 10 days relative to control; type: organism-based; parameters: dose 10 mg/kg, route intravenous; conditions: in vivo, 240 h
HOP-62 = experiment: Cytotoxicity against human HOP62 cells after 48 hrs by SRB assay; type: functional; conditions: HOP-62, 48 h
SR = experiment: Cytotoxicity against human SR cells after 48 hrs by SRB assay; type: functional
MOLT-4 = experiment: Cytotoxicity against human MOLT4 cells after 48 hrs by SRB assay; type: functional; conditions: MOLT-4, 48 h
BXPC-3 = experiment: Cytotoxicity against human BxPC3 cells after 72 hrs by MTT assay; type: functional; conditions: BXPC-3, 72 h
COLO 205 [15] = experiment: Cytotoxicity against human COLO205 cells after 72 hrs by MTT assay; type: functional; conditions: COLO 205, 72 h
A549 = experiment: Cytotoxicity against human A549 cells after 72 hrs by MTT assay; type: functional; conditions: A549, 72 h
HOP-92 = experiment: Cytotoxicity against human HOP92 cells after 48 hrs by SRB assay; type: functional; conditions: HOP-92, 48 h
NCI-H460 = experiment: Cytotoxicity against human NCI-H460 cells after 48 hrs by SRB assay; type: functional; conditions: NCI-H460, 48 h
NCI-H522 = experiment: Cytotoxicity against human NCI-H522 cells after 48 hrs by SRB assay; type: functional; conditions: NCI-H522, 48 h
HCT-116 = experiment: Cytotoxicity against human HCT116 cells after 48 hrs by SRB assay; type: functional; conditions: HCT-116, 48 h
HCT-15 = experiment: Cytotoxicity against human HCT15 cells after 48 hrs by SRB assay; type: functional; conditions: HCT-15, 48 h
HT-29 = experiment: Cytotoxicity against human HT-29 cells after 48 hrs by SRB assay; type: functional; conditions: HT-29, 48 h
SF-268 = experiment: Cytotoxicity against human SF268 cells after 48 hrs by SRB assay; type: functional; conditions: SF-268, 48 h
SF-295 = experiment: Cytotoxicity against human SF295 cells after 48 hrs by SRB assay; type: functional; conditions: SF-295, 48 h, read-out: pGI50 (converted)
SF-539 = experiment: Cytotoxicity against human SF539 cells after 48 hrs by SRB assay; type: functional; conditions: SF-539, 48 h
SNB-19 = experiment: Cytotoxicity against human SNB19 cells after 48 hrs by SRB assay; type: functional; conditions: SNB-19, 48 h
Malme-3M = experiment: Cytotoxicity against human MALME-3M cells after 48 hrs by SRB assay; type: functional
MDA-MB-435 = experiment: Cytotoxicity against human MDA-MB-435 cells after 48 hrs by SRB assay; type: functional; conditions: MDA-MB-435, 48 h
SK-MEL-2 [16] = experiment: Cytotoxicity against human SK-MEL-2 cells after 48 hrs by SRB assay; type: functional; conditions: SK-MEL-2, 48 h
SK-MEL-28 = experiment: Cytotoxicity against human SK-MEL-28 cells after 48 hrs by SRB assay; type: functional; conditions: SK-MEL-28, 48 h
SK-MEL-5 = experiment: Cytotoxicity against human SK-MEL-5 cells after 48 hrs by SRB assay; type: functional; conditions: SK-MEL-5, 48 h
IGROV-1 = experiment: Cytotoxicity against human IGROV1 cells after 48 hrs by SRB assay; type: functional; conditions: IGROV-1, 48 h
OVCAR-3 = experiment: Cytotoxicity against human OVCAR3 cells after 48 hrs by SRB assay; type: functional; conditions: OVCAR-3, 48 h
OVCAR-5 = experiment: Cytotoxicity against human OVCAR5 cells after 48 hrs by SRB assay; type: functional; conditions: OVCAR-5, 48 h
OVCAR-8 = experiment: Cytotoxicity against human OVCAR8 cells after 48 hrs by SRB assay; type: functional; conditions: OVCAR-8, 48 h, read-out: pGI50 (converted)
SK-OV-3 = experiment: Cytotoxicity against human SKOV3 cells after 48 hrs by SRB assay; type: functional; conditions: SK-OV-3, 48 h
[17] = Cytotoxicity against human 786-O cells after 48 hrs by SRB assay; type: functional; conditions: 786-0, 48 h
ACHN = experiment: Cytotoxicity against human ACHN cells after 48 hrs by SRB assay; type: functional
TK-10 = experiment: Cytotoxicity against human TK10 cells after 48 hrs by SRB assay; type: functional; conditions: TK-10, 48 h
DU-145 = experiment: Cytotoxicity against human DU145 cells after 48 hrs by SRB assay; type: functional; conditions: DU-145, 48 h
T47D = experiment: Cytotoxicity against human T47D cells after 48 hrs by SRB assay; type: functional

CO[C@@H]([C@@H]1Cc2cc3cc(O[C@H]4C[C@@H](O[C@H]5C[C@@H](O)[C@H](O)[C@@H](C)O5)[C@H](O)[C@@H](C)O4)c(C)c(O)c3c(O)c2C(=O)[C@H]1O[C@H]1C[C@@H](O[C@H]2C[C@@H](O[C@H]3C[C@H](O)[C@H](O)[C@@H](C)O3)[C@H](O)[C@@H](C)O2)[C@H](O)[C@@H](C)O1)[C@@H](O)C(C)=O
GI50 (MDA-MB-468): 33.9 nM | MTD [1]: 64 mg/kg | MTD (Mus musculus [2]): 12 mg/kg | MTD (Mus musculus [3]): 24 mg/kg | concentration at 0.5 h [4]: 1700 nM | concentration at 2 h [5]: < 100 nM | TGI (COLO 205 [6]): Active | TGI (SK-MEL-2 [7]): Active | Activity (Mus musculus [8]): Non-toxic | Activity (Mus musculus [9]): Non-toxic | Activity (Mus musculus [10]): Non-toxic | Activity (Mus musculus [11]): Non-toxic | Activity (Mus musculus [12]): Non-toxic | Activity (Mus musculus [13]): Non-toxic | Activity (Mus musculus [14]): Non-toxic | GI50 (HOP-62): 24.6 nM | GI50 (SR): 12.9 nM | GI50 (MOLT-4): 19.9 nM | GI50 (BXPC-3): 300 nM | GI50 (COLO 205 [15]): 300 nM | GI50 (A549): 300 nM | GI50 (HOP-92): 26.9 nM | GI50 (NCI-H460): 17.8 nM | GI50 (NCI-H522): 17.8 nM | GI50 (HCT-116): 16.6 nM | GI50 (HCT-15): 1050 nM | GI50 (HT-29): 21.4 nM | GI50 (SF-268): 22.4 nM | GI50 (SF-295): 19.9 nM | GI50 (SF-539): 25.1 nM | GI50 (SNB-19): 28.2 nM | GI50 (Malme-3M): 19.5 nM | GI50 (MDA-MB-435): 23.4 nM | GI50 (SK-MEL-2 [16]): 27.5 nM | GI50 (SK-MEL-28): 18.6 nM | GI50 (SK-MEL-5; read-out: GI50): 16 nM | GI50 (SK-MEL-5; read-out: pGI50 (converted)): 17 nM | GI50 (IGROV-1; read-out: GI50): 10 nM | GI50 (IGROV-1; read-out: pGI50 (converted)): 10.5 nM | GI50 (OVCAR-3): 19.5 nM | GI50 (OVCAR-5): 39.8 nM | GI50 (OVCAR-8): 35.5 nM | GI50 (SK-OV-3): 26.3 nM | GI50 [17]: 32.4 nM | GI50 (ACHN): 34.7 nM | GI50 (TK-10): 52.5 nM | GI50 (DU-145): 20.4 nM | GI50 (T47D): 25.7 nM
